According to patent US9107879B1, “Methods of increasing the cytotoxicity of chemotherapeutic agents with multisubstrate inhibitors of histone, protein-lys, polyamine acetylation, and polyamine metabolism” (Vanderbilt University, priority 2010, dated 2015):

What was measured:
H358 lung cancer cells = assay: [3H]-thymidine incorporation DNA synthesis assay; assay type: cell-based; details: for inhibition of DNA synthesis, single agent (FIG. 25): 1, 10 or 50 μM for 12 hours
Procedure: (§1) (A) Structures of 1a, and the acetylated side chain of a lysine residue within the polypeptide chain of a protein targeted by the acetylating enzyme (R1 and R2 are the main chain elements on both sides of the lysyl residue). (B) [^3H]-thymidine incorporation into DNA of H358 cells pulsed for 6 hrs at three different time points after the addition of increasing concentrations of 1a, i.e., at 6-12 hrs (12 hr curve), at 18-24 hours (24 hr curve), or at 42-48 hrs (48 hr curve). Incorporation is represented as a percentage relative to control (untreated) cells. (C) Cell cycle analysis of propidium iodide-stained cells harvested at various times after addition of 50 μM 1a. % of cells in G1, S, and G2 represents the average of two independent profiles. (D) Western analysis of histone H3 lysine 9 acetylation, histone H3 lysine 56 acetylation, histone H3 lysine 9 methylation, and total histone H3, before “c” or at the indicated times after addition of 50 μM 1a. Each lane represents 60 μg cellular protein.
Control cells were left untreated. […] Control cells were left untreated.
Cells were either labeled immediately before treatment (starting DNA synthesis rate), or subjected to the indicated treatments and then pulsed on successive days until day 4. DNA synthesis is represented as the percent of starting DNA synthesis rate. Viability was determined for each treatment condition 24 hours post-start of treatment by the trypan blue exclusion assay, with percentages of viable cells indicated to the right of the graph.
H358 cells (2,000/well) in 96-well plates were treated with 1, 10 or 50 μM of spd-1a, spd-2a, spd-3a, spm3, or spm2 for 12 hours. Triplicate wells of cells were pulsed 6 hours with 0.5 μCi [^3H]-thymidine (NEN, Boston Mass.) post-start of drug treatment, and harvested onto filter paper using a Brandel Harvester and subjected to scintillation counting. Untreated cells were pulsed 0-6 hrs to establish the initial rate of incorporation.
Cells were plated in 96-well plates (2000 cells per well to insure conditions for exponential growth for untreated cells over the time course of the experiment) and exposed to the following treatments: 1a (50 μM); camptothecin (Sigma, St Louis, Mo. 5 nM, 18 hours); cisplatin (Platinol, obtained through local pharmacies, 2 μM, 1 hour 15 minutes), 5-fluorouracil (5FU, Adrucil™, obtained through local pharmacies, 2 μM, 1 hour 15 minutes), Taxotere (provided by the late Dr. Pierre Potier, 5 nM, 18 hours). UVC treatment (40 J/m^2) using a Stratalinker™, Stratagene, La Jolla, Calif.) was carried using medium lacking phenol red. At 0-6 hr, 18-24 hr (day 1), 42-48 hr […], 66-72 hr (day 3), and 90-96 hr (day 4) post-start of treatment, triplicate wells were incubated with 0.5 μCi [^3H]-thymidine (NEN, Boston Mass.), harvested onto filter paper, and subjected to scintillation counting. Trypan blue exclusion assays for cell membrane integrity were carried out as known in the art.
The present inventors used [^3H]-thymidine incorporation assays to examine DNA synthesis in H358 lung cancer cells in the presence of varying concentrations of 1a. Cells were pulsed for 6 hours with [^3H]-thymidine at three different time points after the addition of 1a (i.e., at 6-12 hours, at 18-24 hours, and at 42-48 hours). The incorporation of [^3H]-thymidine into DNA decreased with increasing concentrations of 1a at all three time points, with the maximal effect occurring with the 6-12 hour pulse (FIG. 2B).
We then used [^3H]-thymidine incorporation assays to examine DNA synthesis in H358 lung cancer cells in the presence of 1a alone, or together with an 18 hour exposure to the DNA damaging drug, camptothecin (CPT), a plant alkaloid from which an important class of topoisomerase I-targeted chemotherapeutic agents (Hycamtin [topotecan] and Camptosar [irinotecan]) has been derived (Garcia-Carbonero, et al, 2002, Clin Cancer Res 8: 641-61). […]

[1] = tested on: histone H3 lysine 9 acetylation in H358 cells; assay: Western analysis of histone H3 lysine 9 acetylation/methylation; assay type: cell-based; details: for suppression of histone H3K9 acetylation: 50 μM, 12 hours post start of treatment
Procedure: as §1
Each lane represents 175 μg cell lysate protein.
One 6 cm culture dish of H358 cells per treatment was used. Cells were treated with 50 μM spm-2, spm-3, or spd-3a for 12 hours. Histones were extracted from cells in 0.2M H2SO4 (as described in Furuta, T., et al (2003) J. Biol. Chem. 278: 20303-20312), followed by SDS-PAGE and Western blotting. Blots were probed with anti-acetyl histone H3-lysine 9 (Upstate Biotechnology, Inc.)
Cells were lysed by adding 1 mL of 0.2 M H2SO4. Histones were recovered as described in reference. SDS-PAGE/Western analysis was carried out as previously described using rabbit monoclonal antibody to total histone H3, rabbit polyclonal anti-trimethyl histone H3 (lysine 9), and anti-acetyl histone H3 (lysine 9). All antibodies were purchased from Upstate Biotechnology Inc. (Lake Placid, N.Y.).
In FIG. 2D, we carried out an immunoblot analysis of total histone H3, histone H3 acetylated on lysine 9 (H3-K9Ac), histone H3 acetylated on lysine 56 (H3-K56Ac) and histone H3 methylated on lysine 9 (H3-MeK9) in H358 cells, before treatment, and after 1, 12, 18, and 24 hours of treatment with 50 μM 1a. […] Acetylation levels are restored by 24 hours.
One 10-cm plate of H358 lung cancer cells (about 2×10^6 cells), grown in DMEM+10% Fetal bovine serum as described in reference, were treated for 24 hours with 50 μM1a inhibitor. Cells lysates were prepared as we have previously described (Lee C, et al., 2005, Cancer Res 65:9834-9842). Treated cells and untreated (control) cells were harvested by lysing in buffer containing 10 mM Hepes pH 7.5, 100 mM NaCl, 300 mM sucrose, 3 mM MgCl2, 1 mM EDTA, 1 mM DTT, 0.5% Triton X-100, 1 mM PMSF, protease inhibitor pellet (Roche) and analyzed on 10% SDS-PAGE gels, followed by Western immunoblot analysis of total histone H3, methylated histone H3 (methylated on lysine 9), and acetylated histone H3 (acetylated on lysine 9). […] Histone H3 methylation was not affected.

**Q.** For `CC(C)(COP(=O)(O)OP(=O)(O)OC[C@H]1O[C@@H](n2cnc3c(N)ncnc32)[C@H](O)[C@@H]1OP(=O)(O)O)[C@@H](O)C(=O)NCCC(=O)NCCSCC(=O)NCCCNCCCCN` [1a, spermidine[N1]-CoA], which “sensitization to cisplatin (CDDP), UVC irradiation and 5-FU in DNA synthesis assay” value (H358 lung cancer cells; 50 μM 1a + cisplatin 2 μM, UVC 40 J/m2 or 5FU 2 μM) is on record?
**A.** Its value is “sensitized”.

**Q.** What about the activity at 50 µM (H358 lung cancer cells; Homo sapiens, NCI-H358, 50 μM 1a + 5 nM camptothecin (18 h), 48 hours post-initiation, read-out: [3H]-thymidine incorporation, % of control incorporation) of the same compound?
**A.** The activity at 50 µM was less than 20%.

**Q.** And the IC50 (H358 lung cancer cells; Homo sapiens, NCI-H358, 6-12 hour [3H]-thymidine pulse, read-out: IC50 for inhibition of DNA synthesis)?
**A.** The IC50 was 50 to 100 µM.

**Q.** What about the “effect on histone H3 lysine 9 methylation” value ([1]; 50 μM 1a) of the same compound?
**A.** Its value is “no effect”.

**Q.** And the “histone H3 lysine 9 acetyl groups lost” value ([1]; 50 μM 1a, within 1 hour)?
**A.** Its value is “over 50%”.

**Q.** And the “histone H3 lysine 9 acetyl groups lost” value ([1]; 50 μM 1a, within 12 hours)?
**A.** The value was roughly 98%.

**Q.** And the “histone H3 K9 acetyl groups lost” value ([1]; Example 1: 50 μM 1a, 24 hours, cell lysate)?
**A.** Its value is “over 80%”.

**Q.** Which results are given for `CC(=O)NCCSCC(=O)NCCCNCCCCN` [3a]?
**A.** inhibition of DNA synthesis, single agent (FIG. 25) (H358 lung cancer cells): inhibit DNA synthesis; suppression of DNA synthesis in combination with camptothecin (H358 lung cancer cells; 3a + CPT 5 nM 18 hours, pulse from 42 hours): effective; suppression of histone H3K9 acetylation [1]: nearly complete ablation of histone H3K9 acetylation; suppression of histone H3K9 acetylation ([1]; listed as spd-3a): suppress histone acetylation

**Q.** With `CC[C@@]1(O)C(=O)OCc2c1cc1n(c2=O)Cc2cc3ccccc3nc2-1` [camptothecin] as the compound, how does the “effect on [3H]-thymidine incorporation, single agent” value (H358 lung cancer cells; 1a 50 μM, camptothecin 5 nM (18 or 24 h)) read?
**A.** The value was “no detectable effect”.

**Q.** Which results are given for `CC(=O)NCCSCC(=O)NCCCNCCCCNCCCN` [spm-3]?
**A.** inhibition of DNA synthesis, single agent (FIG. 25) (H358 lung cancer cells): inhibit DNA synthesis; suppression of histone H3K9 acetylation [1]: suppress histone acetylation
